In PubChem BioAssay AID1259407 (Chemical Carcinogenesis Research Information System (CCRIS), 2018) one finds mutagenic call data, which are given here for ten compounds.

The series relates to CCRIS mutagenicity, Ames/micronucleus/aberration tests. In words: CCRIS mutagenicity studies.
[1] abbreviates: Test System: AMES SALMONELLA TYPHIMURIUM, Strain/Indicator: TA98, Metabolic Activation: NONE, Method: PREINCUBATION
Where [2] appears, read: Test System: AMES SALMONELLA TYPHIMURIUM, Strain/Indicator: TA100, Metabolic Activation: NONE, Method: PREINCUBATION
Where [3] appears, read: Test System: AMES SALMONELLA TYPHIMURIUM, Strain/Indicator: TA1535, Metabolic Activation: NONE, Method: PREINCUBATION
Where [4] appears, read: Test System: AMES SALMONELLA TYPHIMURIUM, Strain/Indicator: TA1537, Metabolic Activation: NONE, Method: PREINCUBATION
Setting [5] is: Test System: AMES SALMONELLA TYPHIMURIUM, Strain/Indicator: TA98, Metabolic Activation: NONE, Method: STANDARD PLATE.
Where [6] appears, read: Test System: AMES SALMONELLA TYPHIMURIUM, Strain/Indicator: TA100, Metabolic Activation: NONE, Method: STANDARD PLATE.

Calls of active or inactive are those of the source. The rule behind the calls is not given here.

With `CC(C)Oc1ccccc1OC(=O)N(C)N=O`, the mutagenic call runs as follows: (End Point: In vitro chromosomal aberrations, Test System: Chinese hamster ovary (CHO-W8) cells, Metabolic Activation: None) “active; positive (structural changes)”; (Test System: CHINESE HAMSTER V-79, Strain/Indicator: V-79 (HPRT)/6-THIOGUANINE, Metabolic Activation: NONE) “active; positive”; (Test System: E. COLI WP2, Strain/Indicator: WP2, Metabolic Activation: NONE, Method: STANDARD PLATE) “active; positive”.

As to `CC(O)C(C)O` (stereo not drawn), the mutagenic call is, setting by setting: under setting [1], “inactive; negative”; under setting [2], “inactive; negative”; under setting [3], “inactive; negative”; under setting [4], “inactive; negative”; (Test System: AMES SALMONELLA TYPHIMURIUM, Strain/Indicator: TA1538, Metabolic Activation: NONE, Method: PREINCUBATION) “inactive; negative”; (Test System: E. COLI, Strain/Indicator: WP2 UVRA, Metabolic Activation: NONE, Method: PREINCUBATION) “inactive; negative”.

In the case of `CCCC(=O)OCc1ccccc1[N+](=O)[O-]`, the mutagenic call is “inactive; negative” under setting [1]; “inactive; negative” under setting [2]; “inactive; negative” (Test System: AMES SALMONELLA TYPHIMURIUM, Strain/Indicator: TA100, Metabolic Activation: RAT, LIVER, S-9, AROCLOR 1254, Method: PREINCUBATION).

Turning to `C[C@]12CC[C@H](OC(=O)/C=C/c3cccc(N(CCCl)CCCl)c3)C[C@@H]1CC[C@@H]1[C@@H]2CC[C@]2(C)NC(=O)CC[C@@H]12`, the mutagenic call under setting [5] was “inactive; negative”; the mutagenic call (Test System: AMES SALMONELLA TYPHIMURIUM, Strain/Indicator: TA98, Metabolic Activation: RAT, LIVER, S-9, AROCLOR 1254, Method: STANDARD PLATE) is “inactive; negative”; the mutagenic call under setting [6] was “inactive; negative”; the mutagenic call (Test System: AMES SALMONELLA TYPHIMURIUM, Strain/Indicator: TA100, Metabolic Activation: RAT, LIVER, S-9, AROCLOR 1254, Method: STANDARD PLATE) is “inactive; negative”; the mutagenic call (Test System: AMES SALMONELLA TYPHIMURIUM, Strain/Indicator: TA1535, Metabolic Activation: NONE, Method: STANDARD PLATE) was “inactive; negative”; the mutagenic call (Test System: AMES SALMONELLA TYPHIMURIUM, Strain/Indicator: TA1535, Metabolic Activation: RAT, LIVER, S-9, AROCLOR 1254, Method: STANDARD PLATE) was “inactive; negative”. The mutagenic call is, setting by setting: (Test System: AMES SALMONELLA TYPHIMURIUM, Strain/Indicator: TA1537, Metabolic Activation: NONE, Method: STANDARD PLATE) “inactive; negative”; (Test System: AMES SALMONELLA TYPHIMURIUM, Strain/Indicator: TA1537, Metabolic Activation: RAT, LIVER, S-9, AROCLOR 1254, Method: STANDARD PLATE) “inactive; negative”.

As for `Cc1cccc2c3c(c4cc5ccccc5cc4c12)O3`, under setting [1], the mutagenic call is “active; positive”.

For the compound `CCOc1ccc2ccccc2c1`, the mutagenic call reads like this: under setting [1], “inactive; negative”; (Test System: AMES SALMONELLA TYPHIMURIUM, Strain/Indicator: TA98, Metabolic Activation: RAT LIVER S-9, PHENOBARBITAL AND BETA-NAPHTHOFLAVONE, Method: PREINCUBATION) “inactive; negative”; under setting [2], “inactive; negative”; (Test System: AMES SALMONELLA TYPHIMURIUM, Strain/Indicator: TA100, Metabolic Activation: RAT LIVER S-9, PHENOBARBITAL AND BETA-NAPHTHOFLAVONE, Method: PREINCUBATION) “inactive; negative”; under setting [3], “inactive; negative”; (Test System: AMES SALMONELLA TYPHIMURIUM, Strain/Indicator: TA1535, Metabolic Activation: RAT LIVER S-9, PHENOBARBITAL AND BETA-NAPHTHOFLAVONE, Method: PREINCUBATION) “inactive; negative”. Moreover, the mutagenic call is “inactive; negative” under setting [4]; “inactive; negative” (Test System: AMES SALMONELLA TYPHIMURIUM, Strain/Indicator: TA1537, Metabolic Activation: RAT LIVER S-9, PHENOBARBITAL AND BETA-NAPHTHOFLAVONE, Method: PREINCUBATION); “inactive; negative” (Test System: E.COLI, Strain/Indicator: WP2UVRA/PKM101, Metabolic Activation: NONE, Method: PREINCUBATION); “inactive; negative” (Test System: E.COLI, Strain/Indicator: WP2UVRA/PKM101, Metabolic Activation: RAT LIVER S-9, PHENOBARBITAL AND BETA-NAPHTHOFLAVONE, Method: PREINCUBATION).

Consider `COc1ccc2cc(CCC(C)=O)ccc2c1`, for which the mutagenic call (Test System: AMES SALMONELLA TYPHIMURIUM, Strain/Indicator: TA97, Metabolic Activation: NONE, Method: STANDARD PLATE) was “inactive; negative”; the mutagenic call (Test System: AMES SALMONELLA TYPHIMURIUM, Strain/Indicator: TA97, Metabolic Activation: S-9, Method: STANDARD PLATE) is “inactive; negative”; the mutagenic call under setting [5] is “inactive; negative”; the mutagenic call (Test System: AMES SALMONELLA TYPHIMURIUM, Strain/Indicator: TA98, Metabolic Activation: S-9, Method: STANDARD PLATE) was “inactive; negative”; the mutagenic call under setting [6] is “inactive; negative”; the mutagenic call (Test System: AMES SALMONELLA TYPHIMURIUM, Strain/Indicator: TA100, Metabolic Activation: S-9, Method: STANDARD PLATE) is “inactive; negative”. Also, the mutagenic call is “inactive; negative” (Test System: AMES SALMONELLA TYPHIMURIUM, Strain/Indicator: TA102, Metabolic Activation: NONE, Method: STANDARD PLATE) and “inactive; negative” (Test System: AMES SALMONELLA TYPHIMURIUM, Strain/Indicator: TA102, Metabolic Activation: S-9, Method: STANDARD PLATE).

Take `CCCCCCCC(=O)Cl`: the mutagenic call reads like this: (Test System: AMES SALMONELLA TYPHIMURIUM, Strain/Indicator: TA98, Metabolic Activation: HAMSTER, LIVER, S-9, AROCLOR 1254 (30%), Method: PREINCUBATION) “inactive; negative”; under setting [1], “inactive; negative”; (Test System: AMES SALMONELLA TYPHIMURIUM, Strain/Indicator: TA98, Metabolic Activation: RAT, LIVER, S-9, AROCLOR 1254 (30%), Method: PREINCUBATION) “inactive; negative”; (Test System: AMES SALMONELLA TYPHIMURIUM, Strain/Indicator: TA100, Metabolic Activation: HAMSTER, LIVER, S-9, AROCLOR 1254 (5%), Method: PREINCUBATION) “active; positive”; (Test System: AMES SALMONELLA TYPHIMURIUM, Strain/Indicator: TA100, Metabolic Activation: HAMSTER, LIVER, S-9, AROCLOR 1254 (10 OR 30%), Method: PREINCUBATION) “inactive; negative”; (Test System: AMES SALMONELLA TYPHIMURIUM, Strain/Indicator: TA100, Metabolic Activation: HAMSTER, LIVER, S-9, AROCLOR 1254 (30%), Method: PREINCUBATION) “active; positive”. For the same compound, the mutagenic call reads like this: under setting [2], “inactive; negative”; (Test System: AMES SALMONELLA TYPHIMURIUM, Strain/Indicator: TA100, Metabolic Activation: RAT, LIVER, S-9, AROCLOR 1254 (5 OR 10%), Method: PREINCUBATION) “inactive; negative”; (Test System: AMES SALMONELLA TYPHIMURIUM, Strain/Indicator: TA100, Metabolic Activation: RAT, LIVER, S-9, AROCLOR 1254 (30%), Method: PREINCUBATION) “inactive; negative”; (Test System: AMES SALMONELLA TYPHIMURIUM, Strain/Indicator: TA1535, Metabolic Activation: HAMSTER, LIVER, S-9, AROCLOR 1254 (5, 10 OR 30%), Method: PREINCUBATION) “inactive; negative”; (Test System: AMES SALMONELLA TYPHIMURIUM, Strain/Indicator: TA1535, Metabolic Activation: RAT, LIVER, S-9, AROCLOR 1254 (5, 10 OR 30%), Method: PREINCUBATION) “inactive; negative”.

On to `Nc1nccc2[nH]c3ccccc3c12`, for which the mutagenic call under setting [4] was “active; positive”.

Consider `CN1C[C@@H](O)c2cc3c(c4c2[C@H]1Cc1ccccc1-4)OCO3`, for which the mutagenic call by setting is: (Test System: AMES SALMONELLA TYPHIMURIUM, Strain/Indicator: TA98, Metabolic Activation: RAT, LIVER, S-9, PHENOBARBITAL AND BETA-NAPHTHOFLAVONE, Method: PREINCUBATION) “active; positive”; (Test System: AMES SALMONELLA TYPHIMURIUM, Strain/Indicator: TA100, Metabolic Activation: RAT, LIVER, S-9, PHENOBARBITAL AND BETA-NAPHTHOFLAVONE, Method: PREINCUBATION) “active; positive”.
